Structures are written as SMILES.

Holding throughout (assay type): cell-based
For one data set, the system named is human PBM cells. In words: Cellular toxicity assay, PBM cells. As to the method:
(§1) The toxicity of the compounds was assessed in Vero, human PBM, CEM (human lymphoblastoid), MT-2, and HepG2 cells, as described previously (see Schinazi R. F., Sommadossi J.-P., Saalmann V., Cannon D. L., Xie M.-Y., Hart G. C., Smith G. A. & Hahn E. F. Antimicrob. Agents Chemother. 1990, 34, 1061-67). Cycloheximide was included as positive cytotoxic control, and untreated cells exposed to solvent were included as negative controls. The cytotoxicity IC50 was obtained from the concentration-response curve using the median effective method described previously (see Chou T.-C. & Talalay P. Adv. Enzyme Regul. 1984, 22, 27-55; Belen'kii M. S. & Schinazi R. F. Antiviral Res. 1994, 25, 1-11).

Data set [1] deals with CEM (human lymphoblastoid) cells. The experiment in a line: Cellular toxicity assay, CEM cells. As to the method:
as §1

For a further data set, the system named is Vero cells. In words: Cellular toxicity assay, Vero cells. As to the method: as §1

Regarding `COC(=O)N[C@H](C(=O)N1C[C@@H](n2cc(C(=O)OC)nn2)C[C@H]1c1ncc(-c2ccc(-c3ccc(-c4cnc([C@@H]5C[C@H](n6cc(C(=O)OC)nn6)CN5C(=O)[C@@H](NC(=O)OC)C(C)C)[nH]4)cc3)cc2)[nH]1)C(C)C`, the “Toxicities (μM) PBM” value with human PBM cells amounted to 53 µM. The “Toxicities (μM) CEM” value in data set [1] worked out at 13.5 µM. For the same compound, the “Toxicities (μM) VERO” value in the data set on Vero cells is not below 100 µM.
In the case of `COC(=O)N[C@H](C(=O)N1C[C@@H](n2cc(COC(C)=O)nn2)C[C@H]1c1ncc(-c2ccc(-c3ccc(-c4cnc([C@@H]5C[C@H](n6cc(COC(C)=O)nn6)CN5C(=O)[C@@H](NC(=O)OC)C(C)C)[nH]4)cc3)cc2)[nH]1)C(C)C`, the “Toxicities (μM) PBM” value with human PBM cells was 53 µM. Further, the “Toxicities (μM) CEM” value in data set [1] worked out at 13.5 µM. The “Toxicities (μM) VERO” value in the data set on Vero cells was not below 100 µM.
The like results for `COC(=O)N[C@H](C(=O)N1C[C@@H](SC)C[C@H]1c1ncc(-c2ccc(-c3ccc(-c4cnc([C@@H]5C[C@H](SC)CN5C(=O)[C@@H](NC(=O)OC)C(C)C)[nH]4)cc3)cc2)[nH]1)C(C)C` were, in that order, 15.6 µM, 13.3 µM and 10.9 µM.
With `COC(=O)N[C@H](C(=O)N1C[C@H](n2cc(-c3ccccc3)nn2)C[C@H]1c1ncc(-c2ccc(-c3ccc(-c4cnc([C@@H]5C[C@@H](n6cc(-c7ccccc7)nn6)CN5C(=O)[C@@H](NC(=O)OC)C(C)C)[nH]4)cc3)cc2)[nH]1)C(C)C`, the “Toxicities (μM) PBM” value in the data set on human PBM cells was more than 100 µM. In addition, in data set [1], the “Toxicities (μM) CEM” value is more than 100 µM. Besides, the “Toxicities (μM) VERO” value with Vero cells is more than 100 µM.
With `COC(=O)N[C@H](C(=O)N1C[C@H](n2ccnn2)C[C@H]1c1ncc(-c2ccc(-c3ccc(-c4cnc([C@@H]5C[C@@H](n6cc([Si](C)(C)C)nn6)CN5C(=O)[C@@H](NC(=O)OC)C(C)C)[nH]4)cc3)cc2)[nH]1)C(C)C`, the “Toxicities (μM) PBM” value in the data set on human PBM cells is 3 µM. Moreover, the “Toxicities (μM) CEM” value in data set [1] was 16.2 µM. In addition, in the data set on Vero cells, the “Toxicities (μM) VERO” value is more than 100 µM.
Regarding `COC(=O)N[C@H](C(=O)N1C[C@H](n2cc([Si](C)(C)C)nn2)C[C@H]1c1ncc(-c2ccc(-c3ccc(-c4cnc([C@@H]5C[C@@H](n6cc([Si](C)(C)C)nn6)CN5C(=O)[C@@H](NC(=O)OC)C(C)C)[nH]4)cc3)cc2)[nH]1)C(C)C`, the “Toxicities (μM) PBM” value with human PBM cells is more than 100 µM. For the same compound, the “Toxicities (μM) CEM” value in data set [1] was 25.2 µM. Also, the “Toxicities (μM) VERO” value in the data set on Vero cells was more than 100 µM.

The values are drawn from patent US9932326B2, “Potent and selective inhibitors of hepatitis C virus” (Cocrystal Pharma, LLC, priority 2010, dated 2018).
